The record followed here is PubChem BioAssay (NCI).

Among the test systems are T-47D breast; HT29 colon; NCI-H460 lung; A498 renal; RXF 393 renal; K-562 leukemia; OVCAR-5 ovarian; HCT-15 colon.
Holding throughout (assay): DTP human tumour cell line panel, 48 h

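Five concentrations, 48 hours, 96-well plates. The concentration for 50% growth inhibition is given as GI50. The concentration for full growth arrest is given as TGI.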

Usually GI50 stands for the concentration that inhibits growth by half. One may read the TGI as the concentration at which net growth stops. A higher TGI goes with less potent growth arrest. Regarding `Cc1cc2cc3cc(C)c(N(C)C)cc3[n+](C)c2cc1N(C)C`, the GI50 with T-47D breast is 2.94 µM; in the assay with HT29 colon, 2.46 µM; in the assay on NCI-H460 lung, 2.65 µM; in the assay on A498 renal, 3.18 µM; in the assay on RXF 393 renal, 6.09 µM; with K-562 leukemia it was 3.14 µM. For the same compound, the GI50 was 11.9 µM in the assay on OVCAR-5 ovarian and 4.52 µM in the assay on HCT-15 colon. In addition, the TGI in the assay on T-47D breast is above 100 µM; in the assay with HT29 colon, above 100 µM; in the assay with NCI-H460 lung, 11 µM; in the assay with A498 renal, 25.5 µM; in the assay with RXF 393 renal, 23.4 µM; with K-562 leukemia, above 100 µM. The values for the TGI in the assay on OVCAR-5 ovarian and in the assay on HCT-15 colon were above 100 µM and 72.8 µM, respectively.
`Nc1nc(N)c(Cn2ccnc2)c(=O)[nH]1`: the TGI in the assay on T-47D breast, in the assay on HT29 colon, with NCI-H460 lung, with A498 renal, in the assay on RXF 393 renal and in the assay on K-562 leukemia was above 100 µM each time. In addition, the TGI in the assay on OVCAR-5 ovarian and in the assay on HCT-15 colon was above 100 µM each time.
`Cn1cc(C2=C(c3cn(CCO)c4ccccc34)C(=O)NC2=O)c2ccccc21`: the GI50 in the assay on T-47D breast is 3.96 µM; in the assay on HT29 colon, 1.5 µM; in the assay on NCI-H460 lung, 2.06 µM; with A498 renal it was 1.45 µM; with RXF 393 renal, 3.22 µM; in the assay with K-562 leukemia it was 1.12 µM. For the same compound, the GI50 in the assay on OVCAR-5 ovarian was 10.9 µM; in the assay on HCT-15 colon, 1.57 µM. Moreover, the TGI with T-47D breast was 13.1 µM; in the assay with HT29 colon, above 14.9 µM; in the assay with NCI-H460 lung, above 25 µM; with A498 renal, 7.78 µM; with RXF 393 renal it was 9.54 µM; in the assay on K-562 leukemia, above 25 µM. The TGI with OVCAR-5 ovarian and in the assay on HCT-15 colon was above 25 µM throughout.
As for `O=[N+]([O-])c1ccccc1N=Nc1c(O)[nH]c2ccc(Br)cc12`, the TGI with T-47D breast was above 78.7 µM; in the assay with HT29 colon it was 29.3 µM; in the assay on NCI-H460 lung, 25 µM; in the assay with A498 renal it was above 45.8 µM; in the assay with RXF 393 renal it was above 47.5 µM; in the assay on K-562 leukemia it was above 68.3 µM. In addition, the concentration for total growth inhibition (TGI) with OVCAR-5 ovarian is 33.3 µM; in the assay on HCT-15 colon it was above 56 µM.
Take `Clc1ccc(/C=C/c2cc(N3CCOCC3)c3cc(Cl)c(Cl)cc3n2)cc1`: the GI50 in the assay on T-47D breast, in the assay on HT29 colon, in the assay on NCI-H460 lung, in the assay on A498 renal, in the assay on RXF 393 renal and in the assay on K-562 leukemia was above 100 µM throughout. Moreover, the GI50 with OVCAR-5 ovarian and in the assay with HCT-15 colon was above 100 µM throughout. Besides, the TGI in the assay on T-47D breast, in the assay on HT29 colon, with NCI-H460 lung, with A498 renal, in the assay with RXF 393 renal and with K-562 leukemia was above 100 µM in each case. Also, the TGI with OVCAR-5 ovarian and in the assay with HCT-15 colon was above 100 µM in each case.
On to `Cn1cc(C2=C(c3cccc(N)c3)C(=O)NC2=O)c2ccccc21`, for which the GI50 in the assay with T-47D breast is 14.3 µM; in the assay on HT29 colon, 13.1 µM; with NCI-H460 lung, 13.6 µM; in the assay on A498 renal, 1.13 µM; in the assay with RXF 393 renal it was 3.63 µM; with K-562 leukemia, 8.86 µM. Moreover, the GI50 with OVCAR-5 ovarian was above 25 µM; in the assay on HCT-15 colon, 12.8 µM. Also, the TGI in the assay on T-47D breast is above 25 µM; with HT29 colon, above 25 µM; in the assay with NCI-H460 lung, above 25 µM; in the assay on A498 renal it was above 6.7 µM; in the assay with RXF 393 renal it was above 17.7 µM; in the assay with K-562 leukemia it was above 25 µM. Further, the TGI with OVCAR-5 ovarian and in the assay on HCT-15 colon was above 25 µM in each case.
In the case of `CC(C)Nc1ccc(Nc2ccccc2)cc1`, the GI50 in the assay on T-47D breast was 15.5 µM; with HT29 colon it was 17 µM; with NCI-H460 lung, 18.9 µM; in the assay with A498 renal, 9.69 µM; in the assay on RXF 393 renal, 8.81 µM; in the assay with K-562 leukemia it was 15.6 µM. The GI50 in the assay with OVCAR-5 ovarian was 24.6 µM; in the assay with HCT-15 colon, 21.5 µM. Further, the TGI is 38.8 µM in the assay with T-47D breast; 48.4 µM with HT29 colon; above 100 µM in the assay with NCI-H460 lung; above 100 µM in the assay with A498 renal; 24.6 µM in the assay on RXF 393 renal; 52.5 µM in the assay on K-562 leukemia. Besides, the TGI in the assay on OVCAR-5 ovarian turned out to be 57.1 µM; in the assay with HCT-15 colon, 77 µM.
As to `CC(C)(O)C#Cc1ccc(/C=C/C(=O)c2ccccc2)s1`, the GI50 with T-47D breast was 14.5 µM; in the assay on HT29 colon, 13.5 µM; in the assay with NCI-H460 lung it was 17.3 µM; with A498 renal, 17.7 µM; in the assay with RXF 393 renal it was 14.7 µM; in the assay on K-562 leukemia it was 16.5 µM. The GI50 in the assay on OVCAR-5 ovarian is 16.5 µM; with HCT-15 colon, 15.7 µM. Moreover, the TGI in the assay on T-47D breast amounted to 67.9 µM; with HT29 colon it was 29.9 µM; with NCI-H460 lung, 33.5 µM; with A498 renal, 32.2 µM; in the assay on RXF 393 renal, 28.7 µM; in the assay on K-562 leukemia it was 56.3 µM. Also, the TGI in the assay with OVCAR-5 ovarian was 32 µM; with HCT-15 colon, 30.8 µM.
On to `COc1cc2c(cc1O)-c1c(cnn1-c1ccc([N+](=O)[O-])cc1)CCC2`, for which the TGI was above 100 µM in the assay with T-47D breast; 35.6 µM in the assay on HT29 colon; above 100 µM in the assay with NCI-H460 lung; 80.3 µM in the assay with A498 renal; above 100 µM in the assay on RXF 393 renal; above 100 µM in the assay on K-562 leukemia. For the same compound, the TGI stood at 61.2 µM with OVCAR-5 ovarian and 30.5 µM in the assay with HCT-15 colon.
As to `C#CCN(Cc1nc2cc(C(F)(F)F)ccc2nc1-c1ccccc1)c1ccc(OC(F)(F)F)cc1`, the GI50 was 39.1 µM with T-47D breast; 40.3 µM in the assay on HT29 colon; 38 µM with NCI-H460 lung; 50.1 µM with A498 renal; 46.7 µM in the assay with RXF 393 renal; 33.9 µM with K-562 leukemia. For the same compound, the GI50 in the assay with OVCAR-5 ovarian and in the assay with HCT-15 colon was above 100 µM throughout. In addition, the TGI in the assay with T-47D breast, in the assay with HT29 colon, in the assay with NCI-H460 lung, in the assay on A498 renal, with RXF 393 renal and in the assay with K-562 leukemia was above 100 µM in each case. Further, the TGI with OVCAR-5 ovarian and with HCT-15 colon was above 100 µM throughout.
